“And” between values parts separate entries of the source, which are not always exact repeats. Equal entries are not always repeated.

Test [1] relates to adjuvant induced arthritis. The test can be described thus: adjuvant induced arthritis test in the rat (primary and secondary lesions). Type of test: in vivo, rat (Royal Hart, Wistar strain). As to the method:
(§1) Groups of three Royal Hart, Wistar strain rats, weighing 200±10 g. each were injected intradermally in the right hind paw with Freund's adjuvant (dried human tubercle bacilli in a mineral oil vehicle) at a dose of 2 mg./kg. of body weight. Test compositions were administered orally in a 1.5% starch vehicle at various doses once daily on days 0 through 13 post challenge. Control rats were treated in a similar manner, but given only starch vehicle. On the 14th, 21st, 28th and 35th days post challenge the diameter of the injected paw (primary lesion) was measured by micrometer caliper. The volume of inflamed paws were estimated from these measurements and the results are expressed as percent inhibition of swelling as compared to controls. At the same time, the other inflamed sites, such as ears, paws and tail (secondary lesions) were observed and each rat was graded as to degree of inflammation and swelling present. The grading is based on a scale of 0 to 24, where 0 represents a complete absence of induced arthritic modules and 24 represents the maximum degree of inflammation. The mean grade for each treated group is calculated and the effects of each test compound are expressed as percent inhibition of the control grade. The following Tables I-V record the results of tests conducted with the compositions of this invention and conventional anti-inflammatory agents both separately and in combination. All tests were replicated several times. Each treatment group represents a total of 18 rats. Each challenged control group comprised 36 rats and each unchallenged control group was 9 rats.

Test [2] is described as follows: body weight gain in the adjuvant induced arthritis test in the rat. In kind it is in vivo, rat (Royal Hart, Wistar strain). As to the method:
as §1

[3] abbreviates: oral 5 mg/kg once daily, day 14.
Where [4] appears, read: oral 5 mg/kg once daily, day 21.
Where [5] appears, read: oral 5 mg/kg once daily, day 28.
Where [6] appears, read: oral 5 mg/kg once daily, day 35.
[7] abbreviates: oral 10 mg/kg once daily, day 14.
The mark [8] stands for this setting: oral 10 mg/kg once daily, day 21.
[9] abbreviates: oral 10 mg/kg once daily, day 28.
Where [10] appears, read: oral 10 mg/kg once daily, day 35.
[11] abbreviates: oral 25 mg/kg once daily, day 14.
[12] abbreviates: oral 25 mg/kg once daily, day 21.
Where [13] appears, read: oral 25 mg/kg once daily, day 28.
Where [14] appears, read: oral 25 mg/kg once daily, day 35.
[15] abbreviates: oral 50 mg/kg once daily, day 14.
Where [16] appears, read: oral 50 mg/kg once daily, day 21.
The mark [17] stands for this setting: oral 50 mg/kg once daily, day 28.
The mark [18] stands for this setting: oral 50 mg/kg once daily, day 35.
The mark [19] stands for this setting: oral 100 mg/kg once daily, day 21, 100 mg/kg.
[20] abbreviates: oral 100 mg/kg once daily, day 14.
The mark [21] stands for this setting: oral 100 mg/kg once daily, day 21.
Setting [22] is: oral 12.5 mg/kg once daily, day 14, 12.5 mg/kg.
Setting [23] is: oral 12.5 mg/kg once daily, day 21, 12.5 mg/kg.
Where [24] appears, read: oral 12.5 mg/kg once daily, day 28.
[25] abbreviates: oral 12.5 mg/kg once daily, day 35, 12.5 mg/kg.
Setting [26] is: oral 25 mg/kg once daily, day 14, 25 mg/kg.
The mark [27] stands for this setting: oral 25 mg/kg once daily, day 21, 25 mg/kg.
Setting [28] is: oral 25 mg/kg once daily, day 28, 25 mg/kg.
The mark [29] stands for this setting: oral 25 mg/kg once daily, day 35, 25 mg/kg.

For `C[C@]12C=CC(=O)C=C1CC[C@@H]1[C@@H]2[C@@H](O)C[C@@]2(C)[C@H]1CC[C@]2(O)C(=O)CO` [Prednisolone, reference compound], the “Primary Lesions (% Inhibition)” value in test [1] (setting [3]) is listed as 63%; in test [1] (setting [4]), 24%; in test [1] (setting [5]), 17%; in test [1] (setting [6]) it was 11%; in test [1] (setting [7]), 57%; in test [1] (setting [8]), 24%. Besides, the figures for the “Primary Lesions (% Inhibition)” value in test [1] (setting [9]) and in test [1] (setting [10]) were 14% and 13%, respectively. For the same compound, the “Secondary Lesions (% Inhibition)” value in test [1] (setting [3]) is 45%; in test [1] (setting [4]) it was 16%; in test [1] (setting [5]), 5%; in test [1] (setting [6]), 20%; in test [1] (setting [7]) it was 55%; in test [1] (setting [8]), 21%. Moreover, the “Secondary Lesions (% Inhibition)” value in test [1] (setting [9]) came to 3%; in test [1] (setting [10]) it was 17%. In addition, the “Body Weight Gain in Grams” value in test [2] (setting [3]) is recorded as 22 Grams; in test [2] (setting [4]), 26 Grams; in test [2] (setting [5]), 44 Grams; in test [2] (setting [6]), 71 Grams; in test [2] (setting [7]), 23 Grams; in test [2] (setting [8]), 47 Grams. The “Body Weight Gain in Grams” value is recorded as 75 Grams in test [2] (setting [9]) and 95 Grams in test [2] (setting [10]).

`N#CCC(=O)c1ccc(F)cc1` [(p-Fluorobenzoyl)-acetonitrile]: the “Primary Lesions (% Inhibition)” value is 30% in test [1] (setting [11]); 17% in test [1] (setting [12]); 0% in test [1] (setting [13]); 6% in test [1] (setting [14]); 53% in test [1] (setting [15]); 32% in test [1] (setting [16]). Moreover, the figures for the “Primary Lesions (% Inhibition)” value in test [1] (setting [17]) and in test [1] (setting [18]) were 27% and 22%, respectively. In addition, the “Secondary Lesions (% Inhibition)” value in test [1] (setting [11]) came to 23%; in test [1] (setting [12]), 0%; in test [1] (setting [13]), 0%; in test [1] (setting [14]) it was 7%; in test [1] (setting [15]), 34%; in test [1] (setting [16]), 10%. The “Secondary Lesions (% Inhibition)” value in test [1] (setting [17]) is given as 28%; in test [1] (setting [18]), 19%. The “Body Weight Gain in Grams” value in test [2] (setting [11]) is given as 71 Grams; in test [2] (setting [12]) it was 65 Grams; in test [2] (setting [13]), 80 Grams; in test [2] (setting [14]), 111 Grams; in test [2] (setting [15]), 75 Grams; in test [2] (setting [16]), 77 Grams. Also, the “Body Weight Gain in Grams” value in test [2] (setting [17]) is on record as 93 Grams; in test [2] (setting [18]), 125 Grams.

For the compound `CC(=O)Oc1ccccc1C(=O)O` [Aspirin, 2-(acetyloxy)benzoic acid, reference compound], the “Primary Lesions (% Inhibition)” value was 21% and 16% in test [1] (oral 50 mg/kg once daily, day 14, 50 mg/kg); 0% in test [1] (setting [18]); 8% and 2% in test [1] (setting [19]); 5% and 1% in test [1] (oral 100 mg/kg once daily, day 35, 100 mg/kg). Also, the “Secondary Lesions (% Inhibition)” value in test [1] (oral 50 mg/kg once daily, day 21, 50 mg/kg) is 12% and 10%; in test [1] (oral 50 mg/kg once daily, day 28, 50 mg/kg) it was 31% and 20%. The “Body Weight Gain in Grams” value in test [2] (oral 100 mg/kg once daily, day 14, 100 mg/kg) is 45 Grams and 47 Grams; in test [2] (setting [19]), 42 Grams and 46 Grams; in test [2] (oral 100 mg/kg once daily, day 28, 100 mg/kg) it was 44 Grams and 57 Grams.

For `N#CC=C(N)c1cccs1` [β-Amino-2-thiopheneacrylonitrile], the “Primary Lesions (% Inhibition)” value in test [1] (setting [15]) worked out at 16%; in test [1] (setting [16]), 14%; in test [1] (setting [17]), 6%; in test [1] (setting [18]), 1%. In addition, the “Secondary Lesions (% Inhibition)” value in test [1] (setting [15]) is listed as 13%; in test [1] (setting [16]) it was 0%; in test [1] (setting [17]) it was 4%; in test [1] (setting [18]), 11%. For the same compound, the “Body Weight Gain in Grams” value came out at 63 Grams in test [2] (setting [15]), 66 Grams in test [2] (setting [16]), 76 Grams in test [2] (setting [17]) and 108 Grams in test [2] (setting [18]).

On to `N#CCC(=N)c1ccccc1` [Benzimidoylacetonitrile], for which the “Primary Lesions (% Inhibition)” value in test [1] (setting [11]) is reported as 56%; in test [1] (setting [12]), 33%; in test [1] (setting [15]), 68%; in test [1] (setting [16]), 58%; in test [1] (setting [20]), 68%; in test [1] (setting [21]), 55%. The “Secondary Lesions (% Inhibition)” value in test [1] (setting [11]) came out at 63%; in test [1] (setting [12]), 24%; in test [1] (setting [15]), 70%; in test [1] (setting [16]), 43%; in test [1] (setting [20]), 75%; in test [1] (setting [21]) it was 34%. Besides, the “Body Weight Gain in Grams” value in test [2] (setting [11]) is given as 72 Grams; in test [2] (setting [12]), 66 Grams; in test [2] (setting [15]) it was 77 Grams; in test [2] (setting [16]) it was 80 Grams; in test [2] (setting [20]) it was 70 Grams; in test [2] (setting [21]), 88 Grams.

On to `N#CCC(=O)c1ccccc1` [Benzoylacetonitrile], for which the “Primary Lesions (% Inhibition)” value in test [1] (setting [22]) was 44% and 49%; in test [1] (setting [23]), 16% and 32%; in test [1] (setting [26]), 60% and 62% and 36%; in test [1] (setting [27]), 36% and 38% and 24%; in test [1] (setting [15]) it was 60%; in test [1] (setting [16]) it was 45%. Also, the “Primary Lesions (% Inhibition)” value in test [1] (setting [20]) came to 55%; in test [1] (setting [21]), 54%. In addition, the “Secondary Lesions (% Inhibition)” value is 45% and 59% in test [1] (setting [22]); 25% in test [1] (setting [24]); 22% and 26% in test [1] (setting [25]); 70% and 62% and 50% in test [1] (setting [26]); 20% and 19% in test [1] (setting [28]); 38% and 20% in test [1] (setting [29]). In addition, the “Secondary Lesions (% Inhibition)” value in test [1] (setting [15]) was 66%; in test [1] (setting [16]) it was 43%; in test [1] (setting [20]) it was 76%; in test [1] (setting [21]), 56%. The “Body Weight Gain in Grams” value was 57 Grams and 49 Grams in test [2] (setting [22]); 53 Grams and 38 Grams in test [2] (setting [23]); 55 Grams in test [2] (setting [24]); 81 Grams and 68 Grams in test [2] (setting [25]); 52 Grams and 47 Grams and 57 Grams in test [2] (setting [26]); 52 Grams and 47 Grams and 57 Grams in test [2] (setting [27]). For the same compound, the “Body Weight Gain in Grams” value in test [2] (setting [28]) was 75 Grams and 51 Grams; in test [2] (setting [29]) it was 86 Grams and 69 Grams; in test [2] (setting [15]), 58 Grams; in test [2] (setting [16]) it was 62 Grams; in test [2] (setting [20]) it was 56 Grams; in test [2] (setting [21]), 79 Grams.
